We go through 2 compounds from patent publication US20040092571A1, “Pharmaceutical composition” (SANKYO COMPANY, LIMITED, priority 2000, published 2004).

Structures can show the parent of a compound that is named as a salt.

One assay has as its system cholesterol-fed rabbits. The experiment in a line: Effect on the development of atherosclerotic lesion in cholesterol-fed rabbits with chronic endothelial injury. Format: in vivo, New Zealand White rabbits. Conditions: for Effect on ECD (in words) / Effect on atheroclerotic area of the femoral lesion (in words): Table 2; for The ratio of Atheroclerotic area: femoral artery, oral for 8 weeks after surgery, control 57.4; for The ratio of Atheroclerotic area / ECD (extracellular lipid deposits): Pravastatin 10 mg/kg, Compound A 5 mg/kg; for ECD (extracellular lipid deposits): right femoral artery sections, Elastica-Masson's stain, oral for 8 weeks, control 15.5. An excerpt:
Male New Zealand White rabbits (Kitayama Labes, Japan) weighing 1.0-1.5 kg were meal-fed a chow diet (RC-4, Oriental Bioservice, Japan) supplemented with 0.5% cholesterol, 3% peanut oil, and 3% coconut oil diet for a total of 10 weeks.
The dietary regimen consisted of feeding the cholesterol/fat diet at 40 g for the first 2 weeks, 50 g for 4 weeks, 60 g for final 4 weeks. After 2 week of diet initiation, a chronic endothelial injury was induced in the abdominal aorta and right femoral artery by surgically inserting a sterile, nylon monofilament through the medical saphenous artery of the right leg to the level of the diaphragm. The monofilament was secured and maintained in place for remaining 8 weeks of the study. Animals were randomized on the basis of their total cholesterol levels after 2 week of cholesterol/fat diet. The HMG-CoA reductase inhibitor and the ACAT inhibitor were orally administered both alone and in combination for 8 weeks after surgery.
Femoral artery was photographed for the morphometric analyses by digital camera (Coolpix 990, trade name: product of […].) connected with a computer. The severity of aortic atherosclerosis was estimated as a ratio of surface area of lesion to the intimal surface area of aorta by Photo-retouch software (“Adobe Photoshop 5.0” trade name: product of Adobe Systems Inc.) and the Scion image NIH Imaging Software (“Scion Image 1.61 c MacOs” product of Scion Corporation). (ii) Extracellular Lipid Deposits
Rabbits were anesthetized with intravenous injection of sodium pentobarbital (25 mg/kg) and perfused with saline by using a perfusion apparatus at a constant pressure of 100 mmHg. After perfusion, the aortas were excised, photographed. Analysis of lesional cross-sections on aortas was examined at the right femoral artery. Right femoral artery was fixed in Methanol Carnoy's fixative for at least 24 hours. The segments were embedded in paraffin, and sectioned at 5 μm. Five ribbons of four serilal sections from each segment were cut at 80 μm intervals. A section from each ribbon was treated with Elastica-Masson's stain.
Digital image of each section was collected using a digital camera (Fujix CCD camera system HC-2500: product of Fuji Photo Film Co., Ltd.) attached to Leica microscope at a magnification of 2.5×. The area of each lesional component was extracted using Adobe Photoshop 5.0 (Adobe) for estimation of the quality of the lesions. In sections treated with Elastica-Masson's stain, the region with light green were identified as extracellular matrix (ECM), and extracellular vacuoles and lacunae (white regions) were defined as extracellular lipid deposits (ECD). ECD was measured by average of value dividing area of lesional component by area of lesion using Adobe Photoshop 5.0 and Scion Image 1.61 MacOs.

For a further assay, the system named is F1b hamsters. The experiment in a line: Lipid lowering action in cholesterol/coconut oil-fed F1b hamsters (serum lipids by an enzyme method). Format: in vivo, hamster. The settings on record: for Cholesterol concentration TC (total cholesterol) / Atherogenic index (VLDL+LDL cholesterol/HDL cholesterol) / Cholesterol concentration HDL / Cholesterol concentration VLDL + LDL: serum, oral once a day for 7 days, Pravastatin 3 mg/kg, Compound A 30 mg/kg; for Cholesterol concentration TC (total cholesterol): 17 h fast after final dose, control 253.0; for Atherogenic index (VLDL+LDL cholesterol/HDL cholesterol): control 3.0; for Cholesterol concentration HDL: control 63.6; for Cholesterol concentration VLDL + LDL: control 189.4. How it is done: Eleven-week-old male F1b hamsters were used in the experiment. The animals were fed in metal cages and allowed free access to food, which contained 0.05% cholesterol and 10% coconut oil, and water. The active agents were administered orally in the form of a suspension in 5% gum arabic solution once a day for 7 days. The animals were fasted for 17 hours after the final administration of active agents at which time blood samples were collected under anesthesia. Serum lipids were measured by an enzyme method. In the table, TC indicates total cholesterol, VLDL indicates very low density lipoprotein, LDL indicates low density lipoprotein, HDL indicates high density lipoprotein and compound A indicates N-(1-octyl-5-carboxymethyl-4,6-dimethylindolin-7-yl)-2,2-dimethylpropanamide sulfate.

`CC[C@H](C)C(=O)O[C@H]1C[C@H](O)C=C2C=C[C@H](C)[C@H](CC[C@@H](O)C[C@@H](O)CC(=O)O)[C@H]21` [Pravastatin, (+)-(3R,5R)-3,5-dihydroxy-7-[(1S,2S,6S,8S,8aR)-6-hydroxy-2-methyl-8-[(S)-2-methylbutyryloxy]-1,2,6,7,8,8a-hexahydro-1-napthyl]heptanoic acid, reference compound]: in the assay on cholesterol-fed rabbits, the “Effect on ECD (in words)” value is “no effect”, the “Effect on atheroclerotic area of the femoral lesion (in words)” value is “no effect”, the “The ratio of Atheroclerotic area” value came out at 58.3% and the “ECD (extracellular lipid deposits)” value is 16.6 mm^2. Also, in the assay on F1b hamsters, the “Cholesterol concentration TC (total cholesterol)” value is 244.0, the “Atherogenic index (VLDL+LDL cholesterol/HDL cholesterol)” value was 2.3, the “Cholesterol concentration HDL” value amounted to 73.3 and the “Cholesterol concentration VLDL + LDL” value was 170.6.
As to `CCCCCCCCN1CCc2c(C)c(CC(=O)O)c(C)c(NC(=O)C(C)(C)C)c21` [Compound A, N-(1-octyl-5-carboxymethyl-4,6-dimethylindolin-7-yl)-2,2-dimethylpropanamide sulfate], in the assay with cholesterol-fed rabbits, the “Effect on ECD (in words)” value is on record as “reduced”, the “Effect on atheroclerotic area of the femoral lesion (in words)” value is listed as “reduced”, the “The ratio of Atheroclerotic area” value is reported as 45.8% and the “ECD (extracellular lipid deposits)” value worked out at 10.7 mm^2. For the same compound, in the assay with F1b hamsters, the “Cholesterol concentration TC (total cholesterol)” value is on record as 170.9, the “Atherogenic index (VLDL+LDL cholesterol/HDL cholesterol)” value came out at 1.8, the “Cholesterol concentration HDL” value worked out at 62.0 and the “Cholesterol concentration VLDL + LDL” value is listed as 109.0. For the same compound, in the assay on F1b hamsters (summary of Table 1), the “Effect on atherogenic index (in words)” value is recorded as “lowered”, the “Effect on serum VLDL+LDL cholesterol level (in words)” value is listed as “decreased” and the “Effect on total serum cholesterol level (in words)” value is “decreased”.
